According to PubChem BioAssay AID248 (DTP/NCI, 2004):
“And” between values parts separate entries of the source, which are not always exact repeats. Identical values can stand only once. Inconclusive results and toxic doses are left out. Cut-off read from the data, not from the text of the source: active = T/C of 150% or more; inactive = T/C below 125%.

Tested on: L1210 leukemia ip in BDF1 mice, survival T/C
Assay: NCI In Vivo Anticancer Drug Screen. Data for tumor model L1210 Leukemia (intraperitoneal) in B6D2F1 (BDF1) mice
Settings: endpoint: mean survival time, higher = longer survival
Outline: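 Ratio derived from survival: compound-dosed mice over vehicle-dosed mice, all bearing a transplantable tumor.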

[1] = dose: 25.0 mg/kg/injection, schedule: Q01DX009 (ip), vehicle: Klucel (hydroxypropylcellulose) (HPC)
[2] = dose: 50.0 mg/kg/injection, schedule: Q01DX009 (ip), vehicle: Klucel (hydroxypropylcellulose) (HPC)
[3] = dose: 50.0 mg/kg/injection, schedule: Q04DX003 (ip), vehicle: Klucel (hydroxypropylcellulose) (HPC)
[4] = dose: 100.0 mg/kg/injection, schedule: Q04DX002 (ip), vehicle: Klucel (hydroxypropylcellulose) (HPC)
[5] = dose: 200.0 mg/kg/injection, schedule: Q04DX002 (ip), vehicle: Klucel (hydroxypropylcellulose) (HPC)
[6] = dose: 400.0 mg/kg/injection, schedule: Q04DX002 (ip), vehicle: Klucel (hydroxypropylcellulose) (HPC)
[7] = dose: 100.0 mg/kg/injection, schedule: Q01DX009 (ip), vehicle: Klucel (hydroxypropylcellulose) (HPC)
[8] = dose: 100.0 mg/kg/injection, schedule: Q04DX003 (ip), vehicle: Klucel (hydroxypropylcellulose) (HPC)
[9] = dose: 200.0 mg/kg/injection, schedule: Q04DX003 (ip), vehicle: Klucel (hydroxypropylcellulose) (HPC)
[10] = dose: 400.0 mg/kg/injection, schedule: Q04DX003 (ip), vehicle: Klucel (hydroxypropylcellulose) (HPC)
[11] = dose: 50.0 mg/kg/injection, schedule: Q04DX002 (ip), vehicle: Klucel (hydroxypropylcellulose) (HPC)
[12] = dose: 100.0 mg/kg/injection, schedule: Q04DX002 (ip), vehicle: saline with Tween-80
[13] = dose: 200.0 mg/kg/injection, schedule: Q04DX002 (ip), vehicle: saline with Tween-80
[14] = dose: 400.0 mg/kg/injection, schedule: Q04DX002 (ip), vehicle: saline with Tween-80

Measured: T/C

O=C(/C=C/c1cccc([N+](=O)[O-])c1)c1cccc([N+](=O)[O-])c1
inactive: dose: 12.5 mg/kg/injection, schedule: Q01DX009 (ip), vehicle: Klucel (hydroxypropylcellulose) (HPC) 94 % of control | [1] 92 % of control | dose: 25.0 mg/kg/injection, schedule: Q04DX003 (ip), vehicle: Klucel (hydroxypropylcellulose) (HPC) 94 % of control | [2] 87 % of control | [3] 103 % of control

COc1ccc(/C=C2\C=Nc3ccccc32)cc1
inactive: [4] 94 % of control | [5] 97 % of control | [6] 108 % of control

CC(C)CCOC(CN)C(Cl)(Cl)Cl (stereo not given)
inactive: dose: 25.0 mg/kg/injection, schedule: Q01DX009 (ip), vehicle: saline 96 % of control and 107 % of control | dose: 25.0 mg/kg/injection, schedule: Q04DX002 (ip), vehicle: saline 98 % of control and 106 % of control | dose: 25.0 mg/kg/injection, schedule: Q04DX003 (ip), vehicle: saline 118 % of control | dose: 50.0 mg/kg/injection, schedule: Q01DX009 (ip), vehicle: saline 96 % of control and 100 % of control | dose: 50.0 mg/kg/injection, schedule: Q04DX002 (ip), vehicle: saline 95 % of control | dose: 50.0 mg/kg/injection, schedule: Q04DX003 (ip), vehicle: saline 102 % of control | dose: 100.0 mg/kg/injection, schedule: Q01DX009 (ip), vehicle: saline 98 % of control and 100 % of control | dose: 100.0 mg/kg/injection, schedule: Q04DX003 (ip), vehicle: saline 96 % of control and 109 % of control

CCCCCCCCCCCCCCC[n+]1cccc(C#N)c1
inactive: dose: 5.0 mg/kg/injection, schedule: Q01DX009 (ip), vehicle: saline 104 % of control | dose: 10.0 mg/kg/injection, schedule: Q01DX001 (ip), vehicle: saline 87 % of control | dose: 10.0 mg/kg/injection, schedule: Q01DX009 (ip), vehicle: saline 96 % of control | dose: 10.0 mg/kg/injection, schedule: Q04DX003 (ip), vehicle: saline 90 % of control | dose: 20.0 mg/kg/injection, schedule: Q01DX001 (ip), vehicle: saline 95 % of control and 86 % of control | dose: 20.0 mg/kg/injection, schedule: Q01DX009 (ip), vehicle: saline 107 % of control | dose: 20.0 mg/kg/injection, schedule: Q04DX003 (ip), vehicle: saline 95 % of control | dose: 40.0 mg/kg/injection, schedule: Q01DX001 (ip), vehicle: saline 101 % of control and 90 % of control | dose: 40.0 mg/kg/injection, schedule: Q04DX003 (ip), vehicle: saline 94 % of control

Cn1[nH]c(=O)c2ncccc2c1=O
inactive: [4] 97 % of control | dose: 100.0 mg/kg/injection, schedule: Q04DX002 (ip), vehicle: saline 94 % of control | [5] 97 % of control | dose: 200.0 mg/kg/injection, schedule: Q04DX002 (ip), vehicle: saline 94 % of control | dose: 400.0 mg/kg/injection, schedule: Q04DX002 (ip), vehicle: saline 97 % of control

O=[N+]([O-])c1ccc(N2CCC(CCCC3CCN(c4ccc([N+](=O)[O-])cc4[N+](=O)[O-])CC3)CC2)c([N+](=O)[O-])c1
inactive: [1] 101 % of control | [2] 93 % of control | [7] 95 % of control and 105 % of control | [8] 98 % of control | [9] 97 % of control | [10] 104 % of control

Cc1ccc(OCC(N)=O)cc1
inactive: [11] 100 % of control | [4] 113 % of control | [5] 103 % of control

c1ccc2c(c1)ccc1cc3cc4cc5c(ccc6ccccc65)cc4cc3cc12
inactive: [11] 93 % of control | [5] 90 % of control

CC(CN=[N+]=[N-])OC(=O)C(F)(F)F (stereo not given)
inactive: dose: 37.5 mg/kg/injection, schedule: Q04DX003 (ip), vehicle: saline 104 % of control | dose: 75.0 mg/kg/injection, schedule: Q04DX003 (ip), vehicle: saline 102 % of control | dose: 150.0 mg/kg/injection, schedule: Q04DX003 (ip), vehicle: saline 106 % of control

CCn1[nH]cc2c3nnc(-c4ccccc4)c3cnc21
inactive: [4] 98 % of control | [5] 92 % of control | [6] 95 % of control

O=C(OC1CC=CCC1)c1ccc([N+](=O)[O-])cc1 (stereo not given)
inactive: dose: 100.0 mg/kg/injection, schedule: Q01DX001 (ip), vehicle: Klucel (hydroxypropylcellulose) (HPC) 86 % of control | dose: 200.0 mg/kg/injection, schedule: Q01DX001 (ip), vehicle: Klucel (hydroxypropylcellulose) (HPC) 98 % of control | dose: 400.0 mg/kg/injection, schedule: Q01DX001 (ip), vehicle: Klucel (hydroxypropylcellulose) (HPC) 96 % of control

Cc1cc(-c2ccc(NC(=O)N(C)C)c(C)c2)ccc1NC(=O)N(C)C
inactive: [12] 100 % of control | [13] 114 % of control | [14] 96 % of control

O=P(c1ccco1)(c1ccco1)c1ccco1
inactive: dose: 25.0 mg/kg/injection, schedule: Q04DX003 (ip), vehicle: saline with Tween-80 101 % of control | dose: 50.0 mg/kg/injection, schedule: Q04DX003 (ip), vehicle: saline with Tween-80 95 % of control

O=C(O)c1cc(F)ccc1F
inactive: [4] 97 % of control | [5] 108 % of control

C=CS(=O)(=O)CCCCCCCCCCCCCCCCCC
inactive: [8] 91 % of control | [9] 91 % of control | [10] 98 % of control

COc1cccc(C(=O)O)c1O
inactive: dose: 75.0 mg/kg/injection, schedule: Q01DX001 (ip), vehicle: acetone 101 % of control | dose: 150.0 mg/kg/injection, schedule: Q01DX001 (ip), vehicle: acetone 98 % of control

C1=Nc2ccccc2/C1=C/c1cccc2ccccc12
inactive: [12] 98 % of control | [13] 101 % of control

O=C(Nc1cccc(O)c1)Oc1ccccc1
inactive: dose: 100.0 mg/kg/injection, schedule: Q01DX009 (ip), vehicle: saline with Tween-80 98 % of control | dose: 200.0 mg/kg/injection, schedule: Q01DX009 (ip), vehicle: saline with Tween-80 90 % of control | dose: 400.0 mg/kg/injection, schedule: Q01DX009 (ip), vehicle: saline with Tween-80 89 % of control

CC(C)=NN
inactive: dose: 100.0 mg/kg/injection, schedule: Q01DX001 (ip), vehicle: saline 105 % of control | dose: 200.0 mg/kg/injection, schedule: Q01DX001 (ip), vehicle: saline 98 % of control | dose: 400.0 mg/kg/injection, schedule: Q01DX001 (ip), vehicle: saline 100 % of control

CCCCCCCCCCCCCCCC(=O)CCCCCCCCCCCCCCC
inactive: dose: 100.0 mg/kg/injection, schedule: Q01DX001 (ip), vehicle: other 94 % of control | dose: 200.0 mg/kg/injection, schedule: Q01DX001 (ip), vehicle: other 100 % of control | dose: 400.0 mg/kg/injection, schedule: Q01DX001 (ip), vehicle: other 97 % of control

O=C(CS)OCCOC(=O)CS
inactive: [3] 105 % of control | [7] 92 % of control | [8] 101 % of control | dose: 200.0 mg/kg/injection, schedule: Q01DX009 (ip), vehicle: Klucel (hydroxypropylcellulose) (HPC) 87 % of control | [9] 106 % of control | [10] 86 % of control

CCS(=O)(=O)/C=C/c1ccc(NC(C)=O)cc1
inactive: [12] 122 % of control | [13] 98 % of control | [14] 91 % of control

CN(C)c1ccnc(Cl)n1
inactive: dose: 16.0 mg/kg/injection, schedule: Q01DX Z (ip), vehicle: methylcellulose (MC) 97 % of control | dose: 31.0 mg/kg/injection, schedule: Q01DX Z (ip), vehicle: methylcellulose (MC) 96 % of control | dose: 62.0 mg/kg/injection, schedule: Q01DX Z (ip), vehicle: methylcellulose (MC) 90 % of control | dose: 125.0 mg/kg/injection, schedule: Q01DX Z (ip), vehicle: methylcellulose (MC) 92 % of control and 100 % of control | dose: 250.0 mg/kg/injection, schedule: Q01DX Z (ip), vehicle: methylcellulose (MC) 97 % of control

CCC(C)(C)C(=O)OCc1ccccc1
inactive: [11] 105 % of control | [4] 94 % of control | [5] 94 % of control and 111 % of control | [6] 103 % of control

Cc1cc(C(=O)Nc2ccc(NC3=NCCN3)cc2)cc(C(=O)Nc2ccc(NC3=NCCN3)cc2)c1
inactive: dose: 3.0 mg/kg/injection, schedule: Q01DX Z (ip), vehicle: saline 103 % of control | dose: 6.0 mg/kg/injection, schedule: Q01DX Z (ip), vehicle: saline 103 % of control | dose: 12.0 mg/kg/injection, schedule: Q01DX Z (ip), vehicle: saline 100 % of control | dose: 15.0 mg/kg/injection, schedule: Q01DX Z (ip), vehicle: saline 110 % of control
